Earlier results as cited in US20060153842A1, “Immunosuppressive combination and its use in the treatment or prophylaxis or insulin-producing cell graft rejection” (priority 2001, published 2006).

System: islet allograft in male rats
Details: male rats hyperglycemic with streptozotocin; pre-administration the day before and the day of grafting

CCCCCCCCc1ccc(CCC(N)(CO)CO)cc1 [FTY720, 2-amino-2-[2-(4-octylphenyl)ethyl]propane-1,3-diol]
prolonged islet allograft survival: up to 20 days
